Converted amounts (≈) assume the structure as drawn.
Experiments:
Format in all cases: functional
Settings in all cases: time 16-24 hrs
[1] = tested on: Staphylococcus aureus; experiment: Antibacterial activity against vancomycin-intermediate Staphylococcus aureus Mu50 incubated for 16 to 24 hrs by broth microdilution assay
[2] = tested on: Staphylococcus aureus; experiment: Antibacterial activity against methicillin-resistant Staphylococcus aureus USA300 LAC incubated for 16 to 24 hrs by broth microdilution assay
[3] = tested on: Enterococcus faecium; experiment: Antibacterial activity against vancomycin-resistant Enterococcus faecium Efm-HS-0649 harboring VanA phenotype incubated for 16 to 24 hrs by broth microdilution assay
[4] = tested on: Enterococcus faecium; experiment: Antibacterial activity against vancomycin-resistant Enterococcus faecium Efm-HS-08257 harboring VanM phenotype incubated for 16 to 24 hrs by broth microdilution assay
[5] = tested on: Enterococcus faecium; experiment: Antibacterial activity against vancomycin-resistant Enterococcus faecium Efm-HS-vb01 harboring VanB phenotype incubated for 16 to 24 hrs by broth microdilution assay
[6] = tested on: Enterococcus faecium; experiment: Antibacterial activity against vancomycin-resistant Enterococcus faecium Efm-HS-vb02 harboring VanB phenotype incubated for 16 to 24 hrs by broth microdilution assay
[7] = tested on: Escherichia coli; experiment: Antibacterial activity against Escherichia coli AB1157 incubated for 16 to 24 hrs by broth microdilution assay
[8] = tested on: Acinetobacter baumannii; experiment: Antibacterial activity against carbapenem-resistant Acinetobacter baumannii CRAB-1 clinical isolate incubated for 16 to 24 hrs by broth microdilution assay
[9] = tested on: Acinetobacter baumannii; experiment: Antibacterial activity against Acinetobacter baumannii ATCC19606 incubated for 16 to 24 hrs by broth microdilution assay
[10] = tested on: Pseudomonas aeruginosa; experiment: Antibacterial activity against Pseudomonas aeruginosa PAO1 incubated for 16 to 24 hrs by broth microdilution assay
[11] = tested on: Klebsiella pneumoniae; experiment: Antibacterial activity against Klebsiella pneumoniae KP-1 incubated for 16 to 24 hrs by broth microdilution assay

| SMILES | MIC [1] | MIC [2] | MIC [3] | MIC [4] | MIC [5] | MIC [6] | MIC [7] | MIC [8] | MIC [9] | MIC [10] | MIC [11] |
| --- | --- | --- | --- | --- | --- | --- | --- | --- | --- | --- | --- |
| CN[C@H](CC(C)C)C(=O)N[C@H]1C(=O)N[C@@H](CC(N)=O)C(=O)N[C@H]2C(=O)N[C@H]3C(=O)N[C@H](C(=O)N[C@H](C(=O)NCCC[S+](C)CC(O)COc4ccc(-c5ccccc5)cc4)c4cc(O)cc(O)c4-c4cc3ccc4O)[C@H](O)c3ccc(c(Cl)c3)Oc3cc2cc(c3O[C@@H]2O[C@H](CO)[C@@H](O)[C@H](O)[C@H]2O[C@H]2C[C@](C)(N)[C@H](O)[C@H](C)O2)Oc2ccc(cc2Cl)[C@H]1O.O=C([O-])C(F)(F)F (stereo not given in full) | 0.5 µg/mL | ≤ 0.063 µg/mL | 8 µg/mL | 4 µg/mL | 4 µg/mL | 1 µg/mL | 16 µg/mL | 128 µg/mL | 32 µg/mL | > 128 µg/mL | > 128 µg/mL |
| CN[C@H](CC(C)C)C(=O)N[C@H]1C(=O)N[C@@H](CC(N)=O)C(=O)N[C@H]2C(=O)N[C@H]3C(=O)N[C@H](C(=O)N[C@H](C(=O)NCCC[S+](C)CC(O)COc4ccccc4)c4cc(O)cc(O)c4-c4cc3ccc4O)[C@H](O)c3ccc(c(Cl)c3)Oc3cc2cc(c3O[C@@H]2O[C@H](CO)[C@@H](O)[C@H](O)[C@H]2O[C@H]2C[C@](C)(N)[C@H](O)[C@H](C)O2)Oc2ccc(cc2Cl)[C@H]1O.O=C([O-])C(F)(F)F (stereo not given in full) | 2 µg/mL | 0.25 µg/mL | 32 µg/mL | 16 µg/mL | 16 µg/mL | 4 µg/mL | 16 µg/mL | > 128 µg/mL | 64 µg/mL | > 128 µg/mL | > 128 µg/mL |
| CN[C@H](CC(C)C)C(=O)N[C@H]1C(=O)N[C@@H](CC(N)=O)C(=O)N[C@H]2C(=O)N[C@H]3C(=O)N[C@H](C(=O)N[C@H](C(=O)NCCC[S+](C)CC(O)COc4ccc(C(C)(C)C)cc4)c4cc(O)cc(O)c4-c4cc3ccc4O)[C@H](O)c3ccc(c(Cl)c3)Oc3cc2cc(c3O[C@@H]2O[C@H](CO)[C@@H](O)[C@H](O)[C@H]2O[C@H]2C[C@](C)(N)[C@H](O)[C@H](C)O2)Oc2ccc(cc2Cl)[C@H]1O.O=C([O-])C(F)(F)F (stereo not given in full) | 1 µg/mL | ≤ 0.063 µg/mL | 32 µg/mL | 8 µg/mL | 16 µg/mL | 4 µg/mL | 32 µg/mL | 64 µg/mL | 32 µg/mL | > 128 µg/mL | > 128 µg/mL |
| CN[C@H](CC(C)C)C(=O)N[C@H]1C(=O)N[C@@H](CC(N)=O)C(=O)N[C@H]2C(=O)N[C@H]3C(=O)N[C@H](C(=O)N[C@H](C(=O)O)c4cc(O)c(CNCCC[S+](C)CC(O)COc5ccc(-c6ccc(Cl)cc6)cc5)c(O)c4-c4cc3ccc4O)[C@H](O)c3ccc(c(Cl)c3)Oc3cc2cc(c3O[C@@H]2O[C@H](CO)[C@@H](O)[C@H](O)[C@H]2O[C@H]2C[C@](C)(N)[C@H](O)[C@H](C)O2)Oc2ccc(cc2Cl)[C@H]1O.O=C([O-])C(F)(F)F (stereo not given in full) | ≤ 0.063 µg/mL | ≤ 0.063 µg/mL | 0.5 µg/mL | 2 µg/mL | ≤ 0.063 µg/mL | ≤ 0.063 µg/mL | 8 µg/mL | 16 µg/mL | 16 µg/mL | > 128 µg/mL | 128 µg/mL |
| CN[C@H](CC(C)C)C(=O)N[C@H]1C(=O)N[C@@H](CC(N)=O)C(=O)N[C@H]2C(=O)N[C@H]3C(=O)N[C@H](C(=O)N[C@H](C(=O)O)c4cc(O)c(CNCCC[S+](C)CC(O)COc5ccc(-c6ccccc6)cc5)c(O)c4-c4cc3ccc4O)[C@H](O)c3ccc(c(Cl)c3)Oc3cc2cc(c3O[C@@H]2O[C@H](CO)[C@@H](O)[C@H](O)[C@H]2O[C@H]2C[C@](C)(N)[C@H](O)[C@H](C)O2)Oc2ccc(cc2Cl)[C@H]1O.O=C([O-])C(F)(F)F (stereo not given in full) | ≤ 0.063 µg/mL | ≤ 0.063 µg/mL | 4 µg/mL | 4 µg/mL | ≤ 0.063 µg/mL | ≤ 0.063 µg/mL | 16 µg/mL | 32 µg/mL | 16 µg/mL | > 128 µg/mL | > 128 µg/mL |
| CC(C)C[C@H](C(=O)N[C@H]1C(=O)N[C@@H](CC(N)=O)C(=O)N[C@H]2C(=O)N[C@H]3C(=O)N[C@H](C(=O)N[C@H](C(=O)O)c4cc(O)cc(O)c4-c4cc3ccc4O)[C@H](O)c3ccc(c(Cl)c3)Oc3cc2cc(c3O[C@@H]2O[C@H](CO)[C@@H](O)[C@H](O)[C@H]2O[C@H]2C[C@](C)(N)[C@H](O)[C@H](C)O2)Oc2ccc(cc2Cl)[C@H]1O)N(C)CCC[S+](C)CC(O)COc1ccccc1.O=C([O-])C(F)(F)F (stereo not given in full) | 8 µg/mL | 2 µg/mL | > 128 µg/mL | 128 µg/mL | 64 µg/mL | 32 µg/mL | > 128 µg/mL | > 128 µg/mL | > 128 µg/mL | > 128 µg/mL | > 128 µg/mL |
| CN[C@H](CC(C)C)C(=O)N[C@H]1C(=O)N[C@@H](CC(N)=O)C(=O)N[C@H]2C(=O)N[C@H]3C(=O)N[C@H](C(=O)N[C@H](C(=O)NCCC[S+](C)CC(O)CCc4ccccc4)c4cc(O)cc(O)c4-c4cc3ccc4O)[C@H](O)c3ccc(c(Cl)c3)Oc3cc2cc(c3O[C@@H]2O[C@H](CO)[C@@H](O)[C@H](O)[C@H]2O[C@H]2C[C@](C)(N)[C@H](O)[C@H](C)O2)Oc2ccc(cc2Cl)[C@H]1O.O=C([O-])C(F)(F)F (stereo not given in full) | 2 µg/mL | 0.5 µg/mL | 32 µg/mL | 32 µg/mL | 32 µg/mL | 2 µg/mL | 32 µg/mL | > 128 µg/mL | > 128 µg/mL | 128 µg/mL | > 128 µg/mL |
| CN[C@H](CC(C)C)C(=O)N[C@H]1C(=O)N[C@@H](CC(N)=O)C(=O)N[C@H]2C(=O)N[C@H]3C(=O)N[C@H](C(=O)N[C@H](C(=O)O)c4cc(O)c(CNCCCSCC(O)COc5ccc(-c6ccc(C(F)(F)F)cc6)cc5)c(O)c4-c4cc3ccc4O)[C@H](O)c3ccc(c(Cl)c3)Oc3cc2cc(c3O[C@@H]2O[C@H](CO)[C@@H](O)[C@H](O)[C@H]2O[C@H]2C[C@](C)(N)[C@H](O)[C@H](C)O2)Oc2ccc(cc2Cl)[C@H]1O (stereo not given in full) | 1 µg/mL (≈ 0.541 µM) | 0.125 µg/mL (≈ 0.0677 µM) | 4 µg/mL (≈ 2.17 µM) | 2 µg/mL (≈ 1.08 µM) | 4 µg/mL (≈ 2.17 µM) | 2 µg/mL (≈ 1.08 µM) | > 128 µg/mL | 128 µg/mL (≈ 69.3 µM) | 32 µg/mL (≈ 17.3 µM) | > 128 µg/mL | > 128 µg/mL |
| CN[C@H](CC(C)C)C(=O)N[C@H]1C(=O)N[C@@H](CC(N)=O)C(=O)N[C@H]2C(=O)N[C@H]3C(=O)N[C@H](C(=O)N[C@H](C(=O)NCCCSCC(O)COc4ccc(-c5ccc(C(F)(F)F)cc5)cc4)c4cc(O)cc(O)c4-c4cc3ccc4O)[C@H](O)c3ccc(c(Cl)c3)Oc3cc2cc(c3O[C@@H]2O[C@H](CO)[C@@H](O)[C@H](O)[C@H]2O[C@H]2C[C@](C)(N)[C@H](O)[C@H](C)O2)Oc2ccc(cc2Cl)[C@H]1O (stereo not given in full) | 1 µg/mL (≈ 0.55 µM) | 1 µg/mL (≈ 0.55 µM) | 4 µg/mL (≈ 2.2 µM) | 2 µg/mL (≈ 1.1 µM) | 4 µg/mL (≈ 2.2 µM) | 2 µg/mL (≈ 1.1 µM) | > 128 µg/mL | > 128 µg/mL | > 128 µg/mL | > 128 µg/mL | > 128 µg/mL |
| CC(C)C[C@H](C(=O)N[C@H]1C(=O)N[C@@H](CC(N)=O)C(=O)N[C@H]2C(=O)N[C@H]3C(=O)N[C@H](C(=O)N[C@H](C(=O)O)c4cc(O)cc(O)c4-c4cc3ccc4O)[C@H](O)c3ccc(c(Cl)c3)Oc3cc2cc(c3O[C@@H]2O[C@H](CO)[C@@H](O)[C@H](O)[C@H]2O[C@H]2C[C@](C)(N)[C@H](O)[C@H](C)O2)Oc2ccc(cc2Cl)[C@H]1O)N(C)CCC[S+](C)C[C@@H](O)COc1ccccc1.O=C([O-])C(F)(F)F (stereo not given in full) | 8 µg/mL | 1 µg/mL | > 128 µg/mL | 128 µg/mL | 64 µg/mL | 32 µg/mL | > 128 µg/mL | > 128 µg/mL | > 128 µg/mL | > 128 µg/mL | > 128 µg/mL |
